The record followed here is patent US11046657B2, “Pyrimidinone derivatives and uses thereof to neutralize the biological activity of chemokines” (Centre National de la Recherche Scientifique (CNRS), priority 2016, dated 2021).

The inhibition is how much of the control response was suppressed. Read a low inhibition as a weak effect. In general, melting point refers to the temperature, or range, at which the solid turns liquid.

The target in data set [1] is T1, CXCR4-CXCL12 binding (Homo sapiens, UniProt P48061).
T1 construct: expressed in transfected cells
Kind of data set: Inhibition of CXCL12-TR binding to CXCR4-GFP (FRET). As to conditions: for Affinity for CXCL12 (SAR): deduced from comparative examples. On the procedure: Study of the changes of CXCR4-CXCL12 binding was achieved by the energy transfer technique^10,11.
Binding of Texas red-labelled CXCL12 with CXCR4-GFP fused receptor^11 induces fluorescence resonance energy transfer (FRET), which can be monitored by the reduction of GFP fluorescence emission. The characterization of CXCL12 neutraligands was evaluated in two conditions, differing by the sequence of addition of molecules. Reduction of GFP fluorescence emission was more important when neutraligands were preincubated (30 min) […] prior to the addition to cells.
The CXCR4 antagonist, T134 (20 μM) was used as a control in both incubation protocols. Data obtained were consistent with a binding to the chemokine and not to its receptor. Consequently, all selected compounds are indeed CXCL12 chemokine neutraligands and behave as chalcone-4. The neutralizing properties of the compounds are thus confirmed.

Each structure is given as a SMILES string. Counter-ions that a name gives are not always drawn.

T1 sequence (P48061 22-89 limits assumed): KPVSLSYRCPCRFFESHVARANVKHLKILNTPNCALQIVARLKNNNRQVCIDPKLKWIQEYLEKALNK

With `COc1cc(-c2cc(-c3ccc(Cl)s3)nc(=O)[nH]2)ccc1O` [(33), 4-(5-chlorothiophen-2-yl)-6-(4-hydroxy-3-methoxyphenyl)pyrimidin-2(1H)-one], in data set [1] (Table 4), the inhibition at 10 µM came out at 58 ± 15%.

The molecule `COc1cc(-c2cc(-c3ccc(O)c(C)c3)nc(=O)[nH]2)ccc1O` [(59)] displayed an inhibition at 10 µM in data set [1] (Table 3) of 83 ± 2%.

As for `COc1cc(-c2cc(-c3ccc(N4CCN(C)CC4)cc3)nc(=O)[nH]2)ccc1O` (as salt: hydrochloride), the melting point is 300 to 303 °C.

The molecule `O=c1nc(-c2ccc(Cl)cc2)cc(-c2ccc(O)c(OC(F)(F)F)c2)[nH]1` [(9), 4-(4-chlorophenyl)-6-(4-hydroxy-3-(trifluoromethoxy)phenyl)pyrimidin-2(1H)-one] returned an inhibition at 10 µM in data set [1] (Table 2) of 52 ± 10%.

`COc1cc(-c2cc(-c3ccc(N4CCNCC4)cc3)nc(=O)[nH]2)ccc1O.Cl`: the melting point fell in the range of 117 to 124 °C.

In turn, `COc1cc(-c2cc(-c3ccc(F)cc3)nc(=O)[nH]2)ccc1O` [(5), 4-(4-fluorophenyl)-6-(4-hydroxy-3-methoxyphenyl)pyrimidin-2(1H)-one] displayed an inhibition at 10 µM in data set [1] (Table 2) of 46 ± 4%.

`COc1cc(-c2cc(-c3ccc(N(C)C)nc3)nc(=O)[nH]2)ccc1O.Cl` had a melting point of 257 to 260 °C.

The molecule `COc1ccc(-c2cc(-c3ccc(O)c(OC)c3)[nH]c(=O)n2)cc1` [(2), 4-(4-methoxyphenyl)-6-(4-hydroxy-3-methoxyphenyl)-pyrimidin-2(1H)-one] gave an inhibition at 10 µM in data set [1] (Table 2) of 96 ± 3%.

In data set [1] (Table 4), `COc1cc(-c2cc(-c3ccco3)nc(=O)[nH]2)ccc1O` [(28), 4-(furan-2-yl)-6-(4-hydroxy-3-methoxyphenyl)pyrimidin-2(1H)-one] showed an inhibition at 10 µM of 44 ± 1%.

On to `COc1cc(-c2cc(-c3ccc(O)cc3)nc(=O)[nH]2)ccc1O` [(3), 4-(4-hydroxyphenyl)-6-(4-hydroxy-3-methoxyphenyl)-pyrimidin-2(1H)-one], for which the inhibition at 10 µM in data set [1] (Table 2) was 53 ± 6%.

`Cl.NCCOc1cc(-c2cc(-c3ccc(Cl)cc3)nc(=O)[nH]2)ccc1O` registered a melting point of 272 to 276 °C.

Consider `COc1cc(-c2cc(-c3ccc(C(C)C)cc3)nc(=O)[nH]2)ccc1O` [(4), 4-(4-isopropylphenyl)-6-(4-hydroxy-3-methoxyphenyl)-pyrimidin-2(1H)-one], for which, in data set [1] (Table 2), at 10 µM the inhibition was 35 ± 4%.

On to `COc1cc(-c2cc(-c3ccccc3)nc(=O)[nH]2)ccc1O` [(8), 4-(phenyl)-6-(4-hydroxy-3-methoxyphenyl)-pyrimidin-2(1H)-one], for which the inhibition at 10 µM in data set [1] (Table 2) is 46 ± 8%.

In data set [1] (Table 2), `O=c1nc(-c2ccc(Cl)cc2)cc(-c2ccc(O)cc2)[nH]1` [compound (A), 4-(4-chlorophenyl)-6-(4-hydroxyphenyl)pyrimidin-2(1H)-one, reference compound] showed an inhibition at 10 µM of 4.3 ± 3%. Moreover, in data set [1], the “Affinity for CXCL12 (SAR)” value is “loss of affinity”.

`COc1cccc(-c2cc(-c3ccc(Cl)cc3)nc(=O)[nH]2)c1` [compound (C), 4-(4-chlorophenyl)-6-(3-methoxyphenyl)pyrimidin-2(1H)-one, reference compound] yielded an inhibition at 10 µM in data set [1] (Table 2) of 10 ± 5%. The “Affinity for CXCL12 (SAR)” value in data set [1] was “loss of affinity”.

In turn, `COc1cc(-c2cc(-c3ccc(Cl)cc3)nc(=O)[nH]2)ccc1C(=O)O` [(27), 4-(6-(4-chlorophenyl)-2-oxo-2,3-dihydropyrimidin-4-yl)-2-methoxybenzoic Acid] displayed a melting point of 257 to 261 °C.

In turn, `COc1ccc(-c2cc(-c3ccc(Cl)cc3)nc(=O)[nH]2)cc1O` [(10), 4-(4-chlorophenyl)-6-(3-hydroxy-4-methoxyphenyl)pyrimidin-2(1H)-one] registered an inhibition at 10 µM in data set [1] (Table 2) of 39 ± 7%.

Consider `COc1cc(-c2cc(-c3ccccc3Cl)nc(=O)[nH]2)ccc1O` [(7), 4-(2-chlorophenyl)-6-(4-hydroxy-3-methoxyphenyl)pyrimidin-2(11H)-one], for which the inhibition at 10 µM in data set [1] (Table 2) turned out to be 62 ± 5%.

`COc1cc(-c2cc(-c3ccc[nH]3)nc(=O)[nH]2)ccc1O` [(60)] yielded an inhibition at 10 µM in data set [1] (Table 4) of 53 ± 14%.

Take `O=c1nc(-c2ccc(Cl)cc2)cc(-c2ccccc2)[nH]1` [compound (B), 4-(4-chlorophenyl)-6-phenylpyrimidin-2(1H)-one, reference compound]: the inhibition at 10 µM in data set [1] (Table 2) amounted to 19 ± 7%.

For `COc1ccc(-c2cc(-c3ccc(O)c(C)c3)nc(=O)[nH]2)cc1OC` [(E), 4-(4-hydroxy-3-methylphenyl)-6-(4-methoxy-3-methoxyphenyl)pyrimidin-2(1H)-one, reference compound], testing at 10 µM in data set [1] (Table 3) gave an inhibition of 1.8 ± 0.7%.

In data set [1] (Table 3), `COc1ccc(-c2cc(-c3ccc(Cl)cc3)nc(=O)[nH]2)cc1OC` [(D), 4-(4-chlorophenyl)-6-(4-methoxy-3-methoxyphenyl)pyrimidin-2(1H)-one, reference compound] registered an inhibition at 10 µM of 26 ± 1%.
